PMC7248381, “Structure and Characterization of a Covalent Inhibitor of Src Kinase” (Frontiers in Molecular Biosciences, 2020)

Legend:
Src kinase = Src kinase (Homo sapiens, UniProt P12931); assay: Src enzymatic activity, mobility shift assay (MSA)
Method: Here, we evaluated the relative potency of inhibitors on Src enzymatic activity using a mobility shift assay (MSA), which measures phosphorylation of a peptide substrate of Src. […] The kinase reaction buffer consisted of 100 mM Hepes, pH 7.3, 0.015% Brij-35, 0.004% Tween-20, and 10 mM MgCl2. […] The percent conversion was determined by EZReader 3.0 software and analyzed using GraphPad software version 7 (La Jolla, California, USA) for determination of IC50 values.

[1] = design: method as in earlier work; conditions: comparison values, ref Gierse et al., 1999, Papp-Wallace et al., 2014, Schwartz et al.; cited from earlier work

Sequence of Src kinase (P12931 254-536): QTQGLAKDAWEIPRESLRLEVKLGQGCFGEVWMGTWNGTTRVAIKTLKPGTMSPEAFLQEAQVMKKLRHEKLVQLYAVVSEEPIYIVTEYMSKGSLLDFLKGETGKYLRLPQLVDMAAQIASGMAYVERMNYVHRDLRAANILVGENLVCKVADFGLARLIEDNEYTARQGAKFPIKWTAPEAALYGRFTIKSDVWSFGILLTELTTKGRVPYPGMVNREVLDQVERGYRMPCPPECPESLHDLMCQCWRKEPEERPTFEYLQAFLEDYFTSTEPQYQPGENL

Structure (SMILES) | IC50 (Src kinase) | inactivation rate constant (kinact) [1]
C=CC(=O)Nc1ccccc1Nc1nc(Nc2ccc(N3CCN(C)CC3)cc2)ncc1Cl [SM1-71] | 26.6 nM | 
CN(C)C/C=C/C(=O)Nc1cc2c(Nc3ccc(F)c(Cl)c3)ncnc2cc1O[C@H]1CCOC1 [afatinib] |  | 0.001 s⁻¹
CCOc1cc2ncc(C#N)c(Nc3ccc(OCc4ccccn4)c(Cl)c3)c2cc1NC(=O)/C=C/CN(C)C [neratinib] |  | 0.002 s⁻¹
